Source: patent publication US5550124A, “Use of peripheral-type benzodiazpine sites for treatment of CNS trauma or disease” (priority 1991, dated 1996)
Entries after “also recorded” stand apart in the source; their conditions may differ. Where two headings read alike, the source gives them in different places.

Assays:
[1] = in vivo; cited from earlier work
[2] = stroke treatment; cited from earlier work
[3] = Physical trauma (head injury) model, grip score 18 hours post-injury; assay type: in vivo, mice (male CF-1); conditions: for effectiveness in treatment of CNS trauma/damage (in words): grip score 18 h post trauma, FIGS. 1-8
From the text: Two tests which can be readily performed are observation of grip score and observation of grip time in injured test animals. Another test for agonist activity is for decrease in mortality caused by the CNS injury. Mice can be treated to simulate CNS injury by a variety of methods: they can be deprived of oxygen by administration of KCN (Nauquier, A., et al., Arch. Int. Pharmacodyn., 249:330 (1981)) or by temporary tying-off of the carotid artery (Braughler, J. M. and Lainer, M. J., "The effects of large doses of methylprednisolone on neurologic recovery and survival in the Mongolian gerbil following three hours of unilateral carotid occlusion," CNS Trauma, 3:153-162 (1986)). Alternatively, blows can be administered to the head or the spinal cord of the test animal.
The following protocol was used:
The compound to be tested was weighed and suspended in a polyethylated castor oil solution ("Cremophore") (21% Cremaphore, 3% ethanol in 0.9% saline). The concentration of the solution was then adjusted for administration at a dose of 0.01 cc/gm body weight. For example, for a dose of 10 mg/Kg, the solution was made 1.0 mg/cc, and a 23 g mouse would receive 0.23 cc of this solution. The solution was sonicated for approximately 90 minutes, or until the compound is dissolved.
Male CF-1 mice (15-25 gm) were weighed and marked for identification purposes. Each individual mouse was restrained by grasping the dorsal skin of the neck until the mouse was still. An impounder was used to administer the trauma. The impounder consists of a weight suspended over the animal's head at a height sufficient to produce significant injury when dropped, and a means for immobilizing the animal (in this case, room to hold the animal in place). […] 62:882-887, 883. The mouse was positioned properly under the impounder, and the weight was released from its preset height (11 CM).
Immediately following injury, the mouse was placed under a heat lamp. At various times after injury, the drug was administered intravenously at the specified dose. The time of injury and the time of injection were recorded.
B) Measurement of Grip Score
Each mouse was evaluated 18 hours post-injury for neurological deficit. The delay of 18 hours provided time for any sedative effects of the compound to wear off. It also provided time for healing to occur. Mortality was also noted. A standard grip test, as described in Hall et al., J. Neurosurg. 68:456-461 (1988), was used. The apparatus consisted of a taut string suspended between two uprights, 60 cm in length and 40 cm above a padded table.
(§1) Each mouse was picked up by the tail and placed on the string. […] The tail was then released. Grip score was recorded based on the mouse's performance while on the string. The following criteria were used (taken from Hall, E. D., J. Neurosurg. 62:882-887 (1985)):
C) Statistical Analysis Results of the above test were analyzed for statistical significance using the Mann-Whitney U test. See R. V. Tallarida & R. B. Murray, MANUAL OF PHARMACOLOGIC CALCULATIONS WITH COMPUTER PROGRAMS, Springer-Verlag, N.Y., pp. 57-59 (1981). This test was used to compare each set of grip scores for a particular dose of a particular compound against the grip scores for the control group.

[4] = biological target: T1, peripheral-type BZ receptors (Rattus norvegicus, UniProt P16257); assay: Competitive binding assay, displacement of 3H-Ro5-4864 in brain homogenates
T1 construct: displacement of ^3 H-RO5-4864 in brain homogenates; from tissue; host or cells: brain homogenates
From the text: Sprengel, R., et al., "Molecular cloning and expression of cDNA encoding a peripheral-type benzodiazepine receptor," J. Biol. Chem., 264:20415-20421 (1989).
Some of these compounds were further tested in in vivo studies.

platelet aggregation = conditions: cited from earlier work
[5] = biological target: T1, peripheral-type BZ receptors; conditions: # data from Wang et al., Mol. Pharmacol. 25:349-351 (1984); cited from earlier work
NMDA receptor [6] = conditions: in vivo; cited from earlier work
[7] = Physical trauma (head injury) model, grip score 18 hours post-injury; assay type: in vivo, mice (male CF-1); conditions: by extrapolation from Table 3 binding data
[8] = tested on: peripheral-type BZ receptor; assay: Antagonism of Ro5 4864-induced improvement of grip score by PK 14105 following head injury; assay type: in vivo, mice; conditions: for GRIP TEST SCORE: tested 1 hour after injury
From the text: Male CF-1 mice (15-25 gm) were weighed and marked for identification purposes. Each individual mouse was restrained by grasping the dorsal skin of the neck until the mouse was still. An impounder was used to administer the trauma. The impounder consists of a weight suspended over the animal's head at a height sufficient to produce significant injury when dropped, and a means for immobilizing the animal (in this case, room to hold the animal in place). An example of such an impounder can be found in Hall, E.D., "High Dose Glucocorticoid Treatment Improves Neurological Recovery in Head Injured Mice," J. Neurosurg. 62:882-887, 883. The mouse was positioned properly under the impounder, and the weight was released from its preset height (11 CM).
as §1
The inhibitory agonist alone does (row 2 as compared to row 1).
^a Animals were administered vehicle or PK 14105 i.v. 30 min prior to
^b Animals were administered vehicle or Ro5 4864 i.v. 5 min after hea
^c Animals were tested 1 hour after headinjury

NMDA receptor [9] = conditions: cats; cited from earlier work

## heparin
[1]
  adverse effects: high risk of brain and/or systemic hemorrhage

## C[C@]12CCC(=O)C=C1CC[C@@H]1[C@@H]2C(=O)C[C@@]2(C)[C@H]1CC[C@]2(O)C(=O)CO [cortisone]
[2]
  effect on neurologic outcome, morbidity or mortality in stroke: no difference in morbidity or mortality

## CN1C(=O)CN=C(c2ccccc2)c2ccccc21 [Ro5-3464, 1,3-Dihydro-1-methyl-5-phenyl-2H-1,4-benzodiazepin-2-one]
[3]
  effectiveness in treatment of CNS trauma/damage (in words): non-effective; also recorded: inactive in the treatment of CNS damage
[4]
  IC50: 1230 nM
  binding affinity to peripheral-type BZ sites (in words): very high IC50 values

## CC(=O)Oc1ccccc1C(=O)O [Aspirin]
Platelet aggregation
  effect on platelet aggregation: inhibit platelet aggregation

## CN1C(=O)CN=C(c2ccccc2Cl)c2ccccc21 [Ro5-4608, 2'-Chloro-1,3-dihydro-1-methyl-5-phenyl-2H-1,4-benzodiazepin-2-one]
[5]
  IC50: 215 nM

## CN1C(=O)CN=C(c2ccc(Cl)cc2)c2cc(F)ccc21 [Ro5-6531, 4'-Chloro-7-fluoro-1,3-dihydro-1-methyl-5-phenyl-2H-1,4-benzodiazepin-2-one]
[3]
  effectiveness in treatment of CNS trauma/damage (in words): effective
[4]; displacement of 3H-Ro5-4864 in brain homogenates, * data by procedure described herein
  IC50: 33.4 nM

## C[C@@H]1C[C@H]2[C@@H]3CCC4=CC(=O)C=C[C@]4(C)[C@@]3(F)[C@@H](O)C[C@]2(C)[C@@]1(O)C(=O)CO [dexamethasone]
[2]
  effect on neurologic outcome, morbidity or mortality in stroke: no difference in morbidity or mortality
[1]
  adverse effects: serious exacerbations of diabetes mellitus

## CN1C(=O)CN=C(c2ccc(F)cc2)c2ccccc21 [Ro5-5122, 4'-Fluoro-1,3-dihydro-1-methyl-5-phenyl-2H-1,4-benzodiazepin-2-one]
[5]
  IC50: 442 nM

## O=C(O)C1CN(CCCP(=O)(O)O)CCN1 (centres unmarked) [CPP]
NMDA receptor [6]
  adverse reactions: respiratory depression and elevated CO2 level

## CC(C)(C)OC(=O)c1ncn2c1[C@@H]1CCCN1C(=O)c1c(Br)cccc1-2 [Rol6-6028]
[3]
  effectiveness in treatment of CNS trauma/damage (in words): inactive in the treatment of CNS damage
[4]
  IC50: > 10000 nM

## C=CCN1C(=O)CN=C(c2ccc(Cl)cc2)c2cc(Cl)ccc21 [Ro5-6945, 1-Allyl-4',7-dichloro-1,3-dihydro-5-phenyl-2H-1,4-benzodiazepin-2-one]
[5]
  IC50: 14.3 nM
[7]
  effectiveness for treatment of CNS trauma or disease (in words): effective

## COc1ccc(C2=NCC(=O)N(C)c3ccc(Cl)cc32)cc1 [Ro5-6669, 7-Chloro-1,3-dihydro-4'-methoxy-1-methyl-5-phenyl-2H-1,4-benzodiazepin-2-one]
[5]
  IC50: 18.7 nM
[7]
  effectiveness for treatment of CNS trauma or disease (in words): effective

## CN1C(=O)CN=C(c2c(Cl)cccc2Cl)c2cc(Cl)ccc21 [Ro7-5520, 2',6',7-Trichloro-1,3-dihydro-1-methyl-5-phenyl-2H-1,4-benzodiazepin-2-one]
[5]
  IC50: 93.1 nM

## CN1C(=O)CN=C(c2ccc(Cl)cc2Cl)c2cc(Cl)ccc21 [Ro5-6902, 4',6',7-Trichloro-1,3-dihydro-1-methyl-5-phenyl-2H-1,4-benzodiazepin-2-one]
[5]
  IC50: 23.4 nM
[7]
  effectiveness for treatment of CNS trauma or disease (in words): effective

## CCN1C(=O)CN=C(c2ccc(Cl)cc2)c2cc(Cl)ccc21 [Ro5-6993, 4',7-Dichloro-1-ethyl-1,3-dihydro-5-phenyl-2H-1,4-benzodiazepin-2-one]
[5]
  IC50: 6.1 nM
[7]
  effectiveness for treatment of CNS trauma or disease (in words): effective

## CN1C(=O)CN=C(c2ccccc2Cl)c2cc(Cl)ccc21 [Ro5-3448, 2',7-Dichloro-1,3-dihydro-1-methyl-5-phenyl-2H-1,4-benzodiazepin-2-one]
[5]
  IC50: 35.2 nM
[7]
  effectiveness for treatment of CNS trauma or disease (in words): effective

## CN1C(=O)CN=C(c2ccc(Cl)cc2Cl)c2cc(Cl)ccc21 [Ro5-6900, 2',4',7-Trichloro-1,3-dihydro-1-methyl-5-phenyl-2H-1,4-benzodiazepin-2-one]
[5]
  IC50: 10 nM
[7]
  effectiveness for treatment of CNS trauma or disease (in words): effective

## CN1C(=O)CN=C(c2ccc(Cl)cc2)c2cc(F)ccc21 [Ro5-6524, 4'-Chloro-7-fluoro-1,3-dihydro-1-methyl-5-phenyl-2H-1,4-benzodiazepin-2-one]
[5]
  IC50: 340 nM

## CN1C(=O)CN=C(c2ccc(Cl)cc2)c2cc(Cl)ccc21 [Ro5-4864, 4',7-Dichloro-1,3-dihydro-1-methyl-5-phenyl-2H-1,4-benzodiazepin-2-one]
[8]; preinjury 10 mg/kg PK 14104 (sic) plus postinjury 0.3 mg/kg Ro5 4864
  GRIP TEST SCORE: 0.93 ± 0.21
[8]; preinjury vehicle, 0.3 mg/kg i.v. 5 min after injury, vehicle/vehicle 1.13 ± 0.27, P<0.05
  GRIP TEST SCORE: 1.84 ± 0.24
[3]
  effectiveness in treatment of CNS trauma/damage (in words): effective

## OC[C@@H](O)[C@@H](O)[C@H](O)[C@H](O)CO [mannitol]
[1]
  adverse effects: severe rebound cerebral edema

## O=C1CN=C(c2ccccc2Cl)c2cc([N+](=O)[O-])ccc2N1 [Clonazepam]
[3]
  effectiveness in treatment of CNS trauma/damage (in words): inactive in the treatment of CNS damage
[4]
  IC50: 9180 nM

## O=C1C(CC[S+]([O-])c2ccccc2)C(=O)N(c2ccccc2)N1c1ccccc1 (centres unmarked) [sulfinpyrazone]
Platelet aggregation
  effect on platelet aggregation: inhibit platelet aggregation

## CN1C(=O)CN=C(c2ccc(Cl)cc2)c2ccccc21 [Ro5-5115, 4'-Chloro-1,3-dihydro-1-methyl-5-phenyl-2H-1,4-benzodiazepin-2-one]
[5]
  IC50: 106 nM

## O=C(O)[C@H]1CN(C/C=C/P(=O)(O)O)CCN1 [D-CPPene]
NMDA receptor [9]
  effect on blood pressure: induces hypotension

## Clc1ccccc1CN1CCc2sccc2C1 [ticlopidine]
Platelet aggregation
  effect on platelet aggregation: inhibit platelet aggregation

## CCC(C)N(C)C(=O)c1cc2ccccc2c(-c2cc([N+](=O)[O-])ccc2F)n1 (centres unmarked) [PK 14105, 1-(2-fluoro-5-nitrophenyl)-1-methyl-N(1-methyl-propyl)-3-isoquinoline carboxamide]
[8]; 10 mg/kg i.v. 30 min preinjury, postinjury vehicle
  GRIP TEST SCORE: 1.40 ± 0.28
[8]; antagonist alone
  effect of the antagonist on grip score (in words): no statistically significant effect on grip score post trauma
[8]; antagonist with inhibitory agonist, 1 hour post-trauma
  effect on agonist-induced improvement of grip score (in words): prevents the agonist from improving grip score
[3]
  effectiveness in treatment of CNS trauma/damage (in words): inactive in treating CNS damage
[3]; inferred from binding and lack of grip score effect
  functional class at the peripheral-type BZ receptor (in words): antagonist to the peripheral-type BZ receptor
[3]; moderate and high doses, FIG. 8
  grip scores compared with controls (in words): stay the same as those of the controls
[4]
  binding affinity to peripheral-type BZ sites (in words): very strong binding affinity
[4]; displacement of 3H-Ro5-4864 in brain homogenates, * data by procedure described herein, read-out: IC50
  IC50: 4.5 nM
